Active and inactive are the calls of the source. The rule behind the calls is not given here.
Legend:
HT-29 [1] = assay: Cytotoxicity against human HT-29 cells incubated for 16 to 24 hrs measured by cell-titre glo luminescent cell viability assay; assay type: functional; details: time 16-24 hrs
Mus musculus [2] = assay: In vivo anti-inflammatory activity in NNK induced induced C57BL/6J ALI mouse model assessed as less bleeding point in lung pretreated at 25 to 100 mg/kg, ip for 1 hr followed by NNK administration by HE staining analysis; assay type: functional, organism-based; details: dose 25-100 mg/kg
Mus musculus [3] = assay: In vivo anti-necrotptic activity in mTNFalpha induced C57BL/6J SIRS mouse model assessed as reduction in serum IL-1beta level pretreated at 5 to 20 mg/kg, po for 1 hr followed by mTNFalpha/Z-VAD-FMK administration measured after 3 hrs by ELISA analysis; assay type: functional, organism-based; details: dose 5-20 mg/kg, time 4.0 hrs
Mus musculus [4] = assay: In vivo anti-inflammatory activity in NNK induced induced C57BL/6J ALI mouse model assessed as intact alveolar structure in lung pretreated at 25 to 100 mg/kg, ip for 1 hr followed by NNK administration by HE staining analysis; assay type: functional, organism-based; details: dose 25-100 mg/kg
U-937 = assay: Anti-necroptotic activity in human U-937 cells assessed as protection against human TNFalpha/cycloheximide/Z-VAD-FMK induced necroptosis preincubated with compound at 1 to 7 uM for 16 to 24 hrs followed by TCZ stimulation for 12 hrs measured by cell-titre glo luminescent cell viability assay; assay type: functional, cell-based; details: dose 1-7 µM, time 28-36 hrs
Mus musculus [5] = assay: In vivo anti-inflammatory activity in NNK induced induced C57BL/6J ALI mouse model assessed as decrease in bronchoalveolar lavage fluid (BALF) total protein pretreated intraperitoneally for 1 hr followed by NNK administration; assay type: functional, organism-based; details: dose 25-100 mg/kg, route ip
Mus musculus [6] = assay: In vivo anti-inflammatory activity in NNK induced induced C57BL/6J ALI mouse model assessed as decrease in bronchoalveolar lavage fluid (BALF) IL-6 level pretreated at 25 to 100 mg/kg, ip for 1 hr followed by NNK administration; assay type: functional, organism-based; details: dose 25-100 mg/kg
Mus musculus [7] = assay: In vivo anti-inflammatory activity in NNK induced induced C57BL/6J ALI mouse model assessed as decrease in lung TNF-alpha mRNA level pretreated at 25 to 100 mg/kg, ip for 1 hr followed by NNK administration; assay type: functional, organism-based; details: dose 25-100 mg/kg
Mus musculus [8] = assay: In vivo anti-inflammatory activity in NNK induced induced C57BL/6J ALI mouse model assessed as lung injury score pretreated at 50 mg/kg, ip for 1 hr followed by NNK administration relative to disease model (reference value: 5.7 +/- 0.5); assay type: functional
HT-29 [9] = assay: Anti-necroptotic activity in human HT-29 cells assessed as inhibition of human TNFalpha/Smac mimetic/Z-VAD-FMK induced necroptosis preincubated with compound followed by TSZ stimulation for 12 hrs; assay type: functional, cell-based

`CCS(=O)(=O)NC1CCC(C(=O)Nc2nc3cc(F)c(Oc4ccc(F)c(NC(=O)Cc5cccc(C(F)(F)F)c5)c4)cc3s2)CC1` (stereo not given) was tested, and the CC50 (HT-29 [1]) was > 100 µM, the Activity (Mus musculus [2]) was “Active” and the Activity (Mus musculus [3]) was “Active”. The Activity (Mus musculus [4]) was “Active”, the Activity (U-937) was “Active” and the Activity (Mus musculus [5]) was “Dose-Dependent Effect”. For the same molecule, the Activity (Mus musculus [6]) was “Active”, the Activity (Mus musculus [7]) was “Active” and the Activity (Mus musculus [8]) was 3.3. For the same molecule, the Activity (HT-29 [9]) was “inactive”.

Reference: ChEMBL document CHEMBL5380814, “Targeting Receptor-Interacting Protein Kinase 1 by Novel Benzothiazole Derivatives: Treatment of Acute Lung Injury through the Necroptosis Pathway” (J Med Chem, 2023)
